Source: patent US20110044952A1, “AMPLIFICATION OF CANCER-SPECIFIC ONCOLYTIC VIRAL INFECTION BY HISTONE DEACETYLASE INHIBITORS” (Ottawa Health Research Institute, priority 2007, published 2011)
“Also recorded” adds a separate entry of the source. Where two headings read alike, the source gives them in different places.

Experiments:
DBT glioma cells = conditions: mouse
PC3 cells = assay type: cell-based
VSV-d51-GFP [1] = assay type: cell-based
[2] = system: primary prostate cancer cells; assay type: cell-based
IFN-α = assay type: cell-based, human
IFN antiviral response = assay type: cell-based
[3] = system: IFN antiviral response pathway; assay type: cell-based
VVDD [4] = assay type: cell-based, vaccinia virus
VSVΔ51-Luc [5] = system: VSVΔ51-Luc; design: species or system CD1 nude mice; conditions: mouse, in vivo
VSVΔ51-Luc [6] = system: VSVΔ51-Luc; design: species or system BALB/c mice; conditions: mouse, in vivo, 20 mg/kg
VSV-d51-GFP [7] = system: VSV-d51-GFP
[8] = system: VSVΔ51 neutralizing antibody; conditions: mouse, in vivo
[9] = system: semliki forest virus (VA7); experiment: Semliki forest virus (VA7) spread and titers in glioma cell lines; assay type: cell-based
VVDD [10] = assay type: cell-based, vaccinia virus; conditions: TSA 0.156 μM 3 hours pre-treatment
B16-F10-lacZ = B16-F10-lacZ lung metastasis model; assay type: in vivo, C57BI6 mice; conditions: 0.05 mg TSA i.p. daily to day 4 + 10^7 pfu VVdd i.v. twice; lungs day 14; p<0.05 vs PBS, VVdd or TSA single treatments
VSV-d51-GFP [11] = assay type: cell-based; conditions: 24 hours

Compound	VA7-mediated cytotoxicity (cell viability) (DBT glioma cells)	JC-1 green fluorescence (mitochondrial membrane potential) (PC3 cells)	activation of caspase 9 (immunoblot) (PC3 cells)	number of Annexin V-positive apoptotic cells (flow cytometry) (PC3 cells)	visible signs of cell death (phase-contrast microscopy) (PC3 cells)	VSV replication (GFP-positive cells, fluorescent microscopy) (VSV-d51-GFP [1])	VSV replication (GFP, flow cytometry) [2]	IFN production (IFN-α ELISA) (IFN-α)	induction of MxA mRNA (IFN antiviral response)	level of IFN-β mRNA (IFN antiviral response)	IRF3 phosphorylation [3]	activation of IRF7, ISG56 and RIG-I [3]	sensitivity of normal tissue to VSV infection (VSV-d51-GFP [7])	VSV-GFP replication (flow cytometry) (normal PBMCs)	further results
CCC(=O)CCCCC[C@@H]1NC(=O)[C@H]2CCCCN2C(=O)[C@H]([C@@H](C)CC)NC(=O)[C@H](Cc2cn(OC)c3ccccc23)NC1=O [Apicidin]	enhance VA7-mediated cytotoxicity														
Nc1ccccc1NC(=O)c1ccc(CNC(=O)OCc2cccnc2)cc1 [MS-275]		increased JC-1 green fluorescence	significant activation	synergistically enhanced the number of Annexin V-positive apoptotic cells	not able to induce visible signs of cell death	allowed effective VSV replication	allowed effective VSV replication	significantly inhibited IFN production	decreased the induction of MxA mRNA	significantly lower; also recorded: undetectable levels	allowed detection of IRF3 phosphorylation and concomitant degradation	inhibited	specific towards cancer cells	did not increase VSV-GFP replication	replication of VVDD (VVDD [4]): able to synergize the replication of VVDD in 4T1, B16 and SW620 cells; VSV antigen in tumors (IHC of frozen sections) (VSVΔ51-Luc [5]): more abundant presence of VSV antigen; viral replication in tumor-bearing mice (IVIS) (VSVΔ51-Luc [5]; ip): more robust viral replication; VSV replication in SW620 tumors (VSVΔ51-Luc [5]; iv): enhancing effect; viral replication (IVIS) (VSVΔ51-Luc [6]): more robust and persistent viral replication; VSV in spleen and lungs (24 hours): sensitive/permissive to VSV; VSV in spleen and lungs (72 hours): started to clear out; loss of total weight (mouse, in vivo): approximately 15%; survival of mice (mouse, in vivo): all of the mice survived; VSV biodistribution in major organs (mouse, in vivo, iv): comparable results of viral spread and replication in major organs; VSV neutralizing antibody production [8]: Inhibit; VSV-G specific antibody production (miniblot) [8]: Inhibit
O=C(CCCCCCC(=O)Nc1ccccc1)NO [SAHA, suberoylanilide hydroxamic acid]	enhance VA7-mediated cytotoxicity	increased JC-1 green fluorescence	significant activation	synergistically enhanced the number of Annexin V-positive apoptotic cells	not able to induce visible signs of cell death	allowed effective VSV replication	allowed effective VSV replication	significantly inhibited IFN production	decreased the induction of MxA mRNA	significantly lower; also recorded: undetectable levels	allowed detection of IRF3 phosphorylation and concomitant degradation	inhibited	specific towards cancer cells	did not increase VSV-GFP replication	VA7 viral titers (pfu/ml) ([9]; SAHA 5 μM or Apicidin 1 μM 1 hour pre-treatment, MOI 0.01, DBT, CT2A, U251 cells, vs DMSO): enhanced the viral titers; Semliki forest virus spread (GFP photomicrographs) ([9]; SAHA 5 μM or Apicidin 1 μM, DBT cells, MOI 0.01, 30 hours): Enhance
CC(/C=C/C(=O)NO)=C\[C@@H](C)C(=O)c1ccc(N(C)C)cc1 [Trichostatin A]															VVdd spread (GFP photomicrographs) (VVDD [10]; MOI 0.1, 48 h): Increases; VVdd titers (pfu/ml) (VVDD [10]; MOI 0.1, 72 h): Increases; number of lung metastases (B16-F10-lacZ): Reduces the Number of Metastases
IFN-α															cell permissiveness to viral infection (GFP expression) (VSV-d51-GFP [11]): decrease cell permissiveness to viral infection
z-VAD-fmk															activation of apoptosis by VSV+MS-275 or VSV+SAHA (Annexin V) (PC3 cells): abrogated activation of apoptosis
